From patent publication US9738637B2, “Histone demethylase inhibitors” (Quanticel Pharmaceuticals, Inc., priority 2013, dated 2017)

Assays:
[1] = test system: KDM5A and KDM5B; assay: In vitro cell-based assay, ZR-75-1 cell line: tri-methyl H3K4 immuno-blotting (cellular inhibition of KDM5A/B); conditions: ZR-75-1 breast cancer cells, 72 hours, read-out: IC50 ZR-75-1 cell-MOA
Text: This quantitative immuno-blotting assay measures the amount tri-methylated histone H3 at amino acid Lysine number 4, a specific substrate […] of the direct enzymatic activity of the histone demethylases KDM5A and KDM5B from extracts of the ZR-75-1 breast cancer cell line.
This assay is a fluorometric immunoassay for the quantification of tri-methyl H3K4 extracted from cells treated with test compound and is used as a measure of the cellular inhibition of KDM5A/B.
Cells were left in the presence of test compound for 72 hours. Extracts were prepared containing all of the cellular histone material using detergent based lysis and sonication methods. These lysates were subsequently normalized for total protein content using a colorimetric bicinchonic acid assay (MicroBCA Pierce/Thermo Scientific). Normalized cell extracts were then subjected to typical immuno-blotting procedures using NuPage reagents (Life Technologies). Electrophoretically separated histones were then transferred and immobilized using polyvinylidene difluoride membrane (Immobilon-FL Millipore). The amount of tri-methylated lysine 4 of histone H3 was detected using an antibody specific to the tri-methylated state (Cell Signaling Technologies) and quantified on an infrared imager using a densitometry software package (Odyssey CLx, Image Studio, Li-Cor). This background subtracted densitometry value was reported as a ration of the GAPDH amount for that sample and then calculated as a percent of the DMSO treated sample. The software package XL-fit (IDBS) was then used to calculate a relative IC50 value for the dilution series of a given test compound according to the equation: fit=(D+((Vmax*(x^n))/((x^n)+(Km^n)))).

[2] = molecular target: Jarid1B (Homo sapiens (Human), UniProt Q9UGL1); assay: Jarid1B in vitro enzyme inhibition assay (TR-FRET); assay type: biochemical; conditions: TR-FRET, H3K4me3-biotin peptide; read-out: IC50 Jarid1B
Method: (§1) This assay determines the ability of a test compound to inhibit Jarid1A, Jarid1B, JMJD2C, and JMJD2A demethylase activity.
The reaction mixture was incubated at room temperature for 30 minutes, and terminated by the addition of 6 μl of 5 mM EDTA in LANCE detection buffer containing 50 nM Phycolink Streptavidin-allophycocyanin and 2 nM Europium-anti-H3K4me1-2 antibody.
(§2) The ability of the compounds disclosed herein to inhibit demethylase activity was quantified and the respective IC50 value was determined.

[3] = molecular target: Jarid1A (Homo sapiens (Human), UniProt P29375); assay: Jarid1A in vitro enzyme inhibition assay (TR-FRET); assay type: biochemical; conditions: H3K4me3-biotin peptide
Method: as §1
The enzymatic assay of Jarid1A activity is based upon Time Resolved-Fluorescence Resonance Energy Transfer (TR-FRET) detection.
The assay reaction was initiated by the following: 2 μl of the mixture of 900 nM H3K4me3-biotin labeled peptide and 6 μM alpha-ketoglutaric acid with 2 μl of 11-point serial diluted inhibitor in 3% DMSO was added to each well of plate, followed by the addition of 2 μl of 3 nM Jarid1A to initiate the reaction. The reaction mixture was incubated at room temperature for 30 minutes, and terminated by the addition of 6 μl of 5 mM EDTA in LANCE detection buffer containing 50 nM Phycolink Streptavidin-allophycocyanin and 2 nM Europium-anti-H3K4me1-2 antibody.
as §2

[4] = molecular target: JMJD2C (Homo sapiens (Human), UniProt Q9H3R0); assay: JMJD2C in vitro enzyme inhibition assay (TR-FRET); assay type: biochemical; conditions: TR-FRET, H3K9me3-biotin peptide; read-out: IC50 JNJD2C
Method: as §1
Reaction product was determined quantitatively by TR-FRET after the addition of detection reagent Phycolink Streptavidin-allophycocyanin (Prozyme) and Europium-anti-di-methylated histone H3 lysine 9 (H3K9me2) antibody (PerkinElmer) in the presence of 5 mM EDTA in LANCE detection buffer (PerkinElmer) at a final concentration of 50 nM and 1 nM, respectively.
The assay reaction was initiated by the following: 2 μl of the mixture of 900 nM H3K9me3-biotin labeled peptide and 6 μM alpha-ketoglutaric acid with 2 μl of 11-point serial diluted inhibitor in 3% DMSO were added to each well of the plate, followed by the addition of 2 μl of 0.9 nM JMJD2C to initiate the reaction. The reaction mixture was incubated at room temperature for 30 minutes, and terminated by the addition of 6 μl of 5 mM EDTA in LANCE detection buffer containing 100 nM Phycolink Streptavidin-allophycocyanin and 2 nM Europium-anti-H3K9me2 antibody.
as §2

Chain of Jarid1A (P29375 1-1090): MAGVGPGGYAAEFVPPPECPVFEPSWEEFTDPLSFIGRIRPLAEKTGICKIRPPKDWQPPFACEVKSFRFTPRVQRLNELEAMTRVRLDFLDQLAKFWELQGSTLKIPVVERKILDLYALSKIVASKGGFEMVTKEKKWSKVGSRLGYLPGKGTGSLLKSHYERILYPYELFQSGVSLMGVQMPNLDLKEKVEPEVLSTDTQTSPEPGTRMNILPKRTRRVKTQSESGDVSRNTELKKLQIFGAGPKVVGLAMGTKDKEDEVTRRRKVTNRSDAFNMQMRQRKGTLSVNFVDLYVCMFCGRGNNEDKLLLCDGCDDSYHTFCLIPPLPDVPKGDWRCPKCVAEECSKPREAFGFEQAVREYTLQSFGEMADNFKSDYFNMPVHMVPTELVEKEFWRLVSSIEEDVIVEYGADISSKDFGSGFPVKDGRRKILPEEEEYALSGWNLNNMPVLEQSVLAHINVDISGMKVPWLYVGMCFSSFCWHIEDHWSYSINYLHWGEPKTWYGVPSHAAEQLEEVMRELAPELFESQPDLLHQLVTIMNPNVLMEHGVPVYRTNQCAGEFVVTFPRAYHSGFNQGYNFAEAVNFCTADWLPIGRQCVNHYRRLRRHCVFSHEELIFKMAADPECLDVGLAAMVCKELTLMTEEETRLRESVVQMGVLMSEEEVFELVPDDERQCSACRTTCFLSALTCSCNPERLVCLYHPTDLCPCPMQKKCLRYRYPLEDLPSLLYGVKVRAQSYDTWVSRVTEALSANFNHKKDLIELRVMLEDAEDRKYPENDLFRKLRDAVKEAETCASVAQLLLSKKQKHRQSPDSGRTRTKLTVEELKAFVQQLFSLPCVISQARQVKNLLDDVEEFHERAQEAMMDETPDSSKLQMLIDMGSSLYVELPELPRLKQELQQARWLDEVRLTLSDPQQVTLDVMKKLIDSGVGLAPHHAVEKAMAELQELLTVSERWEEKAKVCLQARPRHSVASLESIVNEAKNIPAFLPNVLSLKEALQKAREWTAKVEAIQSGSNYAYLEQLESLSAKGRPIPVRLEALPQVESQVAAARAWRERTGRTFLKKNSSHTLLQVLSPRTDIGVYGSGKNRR
Chain of JMJD2C (Q9H3R0 2-372): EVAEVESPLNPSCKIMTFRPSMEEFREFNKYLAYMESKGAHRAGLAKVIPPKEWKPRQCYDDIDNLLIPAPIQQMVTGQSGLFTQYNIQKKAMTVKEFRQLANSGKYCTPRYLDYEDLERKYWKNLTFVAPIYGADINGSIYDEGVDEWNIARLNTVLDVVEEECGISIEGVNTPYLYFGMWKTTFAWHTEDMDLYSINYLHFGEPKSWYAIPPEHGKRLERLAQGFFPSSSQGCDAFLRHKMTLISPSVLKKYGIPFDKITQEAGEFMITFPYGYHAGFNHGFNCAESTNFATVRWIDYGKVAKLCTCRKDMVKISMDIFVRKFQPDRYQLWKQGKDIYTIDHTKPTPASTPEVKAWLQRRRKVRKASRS
Chain of Jarid1B (Q9UGL1 2-751): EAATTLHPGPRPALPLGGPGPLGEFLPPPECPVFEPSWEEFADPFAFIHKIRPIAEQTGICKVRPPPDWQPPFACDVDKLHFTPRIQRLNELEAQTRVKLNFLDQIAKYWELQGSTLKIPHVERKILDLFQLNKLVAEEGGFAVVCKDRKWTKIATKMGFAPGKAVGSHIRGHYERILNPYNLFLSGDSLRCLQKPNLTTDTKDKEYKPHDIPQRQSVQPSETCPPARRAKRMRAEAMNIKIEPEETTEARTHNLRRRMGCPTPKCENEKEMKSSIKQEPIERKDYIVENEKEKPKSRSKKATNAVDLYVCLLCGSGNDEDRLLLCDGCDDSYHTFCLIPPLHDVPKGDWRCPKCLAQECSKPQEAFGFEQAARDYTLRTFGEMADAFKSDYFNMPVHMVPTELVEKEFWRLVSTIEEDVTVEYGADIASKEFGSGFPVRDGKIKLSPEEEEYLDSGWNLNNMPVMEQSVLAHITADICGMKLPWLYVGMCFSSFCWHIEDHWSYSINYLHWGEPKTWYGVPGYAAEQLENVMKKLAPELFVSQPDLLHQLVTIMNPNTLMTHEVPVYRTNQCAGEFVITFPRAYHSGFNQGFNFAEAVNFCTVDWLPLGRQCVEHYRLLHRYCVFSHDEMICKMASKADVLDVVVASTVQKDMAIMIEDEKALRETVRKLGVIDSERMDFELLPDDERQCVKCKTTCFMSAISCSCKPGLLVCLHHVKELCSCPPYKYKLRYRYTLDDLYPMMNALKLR

Compound	IC50 [1] [nM]	IC50 [2] [nM]	IC50 [3] [nM]	IC50 [4] [nM]
COC(=O)c1ccnc2cc(C(C)(O)c3ccccc3)[nH]c12 (racemic) [Example 45, (±)-methyl 2-(1-hydroxy-1-phenylethyl)-1H-pyrrolo[3,2-b]pyridine-7-carboxylate]	> 10000			
CC(=O)Nc1ccc(OCc2cc3nccc(C(=O)O)c3[nH]2)cc1 [Example 97, 2-{[4-(acetylamino)phenoxy]methyl}-1H-pyrrolo[3,2-b]pyridine-7-carboxylic acid]		100 to 1000	100 to 1000	100 to 1000
O=C(O)c1ccnc2cc(C3(O)CCCCC3)[nH]c12 [Example 14, 2-(1-hydroxycyclohexyl)-1H-pyrrolo[3,2-b]pyridine-7-carboxylic acid]		100 to 1000	100 to 1000	100 to 1000
CCC(O)c1cc2nccc(C(=O)OC)c2[nH]1 (racemic) [Example 25, (±)-methyl 2-(1-hydroxypropyl)-1H-pyrrolo[3,2-b]pyridine-7-carboxylate]		> 10000	> 10000	> 10000
COC(=O)c1ccnc2cc(C(O)c3cccc(C)c3)[nH]c12 (racemic) [Example 21, (±)-Methyl 2-[hydroxy-(3-methylphenyl)methyl]-1H-pyrrolo[3,2-b]pyridine-7-carboxylate]		> 10000	1000 to 10000	> 10000
O=C(O)c1ccnc2cc(COc3ccccc3Cl)[nH]c12 [Example 94, 2-[(2-chlorophenoxy)methyl]-1H-pyrrolo[3,2-b]pyridine-7-carboxylic acid]		100 to 1000	100 to 1000	1000 to 10000
COC(=O)c1ccnc2cc(C3CC3)[nH]c12 [Example 11, methyl 2-cyclopropyl-1H-pyrrolo[3,2-b]pyridine-7-carboxylate]		> 10000	> 10000	> 10000
N#Cc1ccc(OCc2cc3nccc(C(=O)O)c3[nH]2)cc1 [Example 98, 2-[(4-cyanophenoxy)methyl]-1H-pyrrolo[3,2-b]pyridine-7-carboxylic acid]		100 to 1000	< 100	100 to 1000
O=C(O)c1ccnc2cc(COc3ccccc3F)[nH]c12 [Example 95, 2-[(2-fluorophenoxy)methyl]-1H-pyrrolo[3,2-b]pyridine-7-carboxylic acid]		100 to 1000	100 to 1000	100 to 1000
COc1ccc(Cc2cc3nccc(C(=O)O)c3[nH]2)cc1 [Example 59, 2-[(4-methoxyphenyl)methyl]-1H-pyrrolo[3,2-b]pyridine-7-carboxylic acid]		100 to 1000	100 to 1000	< 100
O=C(O)c1ccnc2cc(CC3CCCC3)[nH]c12 [Example 52, 2-(cyclopentylmethyl)-1H-pyrrolo[3,2-b]pyridine-7-carboxylic acid]		100 to 1000	< 100	< 100
COC(=O)c1ccnc2cc(C(O)c3ccnn3C)[nH]c12 (racemic) [Example 47, (±)-methyl 2-[hydroxy-(2-methylpyrazol-3-yl)methyl]-1H-pyrrolo[3,2-b]pyridine-7-carboxylate]	> 10000			
COC(=O)c1ccnc2cc(C(O)C3CCOCC3)[nH]c12 (racemic) [Example 42, (±)-methyl 2-[hydroxy(oxan-4-yl)methyl]-1H-pyrrolo[3,2-b]pyridine-7-carboxylate]	> 10000			
CCCc1cc2nccc(C(=O)O)c2[nH]1 [Example 8, 2-propyl-1H-pyrrolo[3,2-b]pyridine-7-carboxylic acid]		1000 to 10000	1000 to 10000	< 100

Now from value to compound:

IC50 [1] [nM]	IC50 [2] [nM]	IC50 [3] [nM]	IC50 [4] [nM]	Compound
> 10000	< 100	< 100	100 to 1000	Cc1ccccc1OCc1cc2nccc(C(=O)O)c2[nH]1 [Example 66, 2-[(2-methylphenoxy)methyl]-1H-pyrrolo[3,2-b]pyridine-7-carboxylic acid]
> 10000	100 to 1000	< 100	100 to 1000	COc1cccc(Cc2cc3nccc(C(=O)O)c3[nH]2)c1 [Example 34, 2-[(3-methoxyphenyl)methyl]-1H-pyrrolo[3,2-b]pyridine-7-carboxylic acid]
> 10000	< 100	< 100	< 100	Cn1nccc1C(O)c1cc2nccc(C(=O)O)c2[nH]1 (racemic) [Example 48, (±)-2-[hydroxy-(2-methylpyrazol-3-yl)methyl]-1H-pyrrolo[3,2-b]pyridine-7-carboxylic acid]
> 10000	< 100	< 100	100 to 1000	O=C(O)c1ccnc2cc(C(O)c3ccccc3Cl)[nH]c12 (racemic) [Example 72, (±)-2-[(2-chlorophenyl)-hydroxymethyl]-1H-pyrrolo[3,2-b]pyridine-7-carboxylic acid]
> 10000	< 100	< 100	< 100	O=C(O)c1ccnc2cc(Cc3ccc(F)cc3)[nH]c12 [Example 101, 2-[(4-fluorophenyl)methyl]pyrrolo[3,2-b]pyridine-7-carboxylic acid]
> 10000	100 to 1000	< 100	< 100	Cc1cccc(Cc2cc3nccc(C(=O)O)c3[nH]2)c1 [Example 36, 2-[(3-methylphenyl)methyl]-1H-pyrrolo[3,2-b]pyridine-7-carboxylic acid]
> 10000	< 100	< 100	100 to 1000	O=C(O)c1ccnc2cc(Cc3ccc(Cl)cc3)[nH]c12 [Example 44, 2-[(4-chlorophenyl)methyl]-1H-pyrrolo[3,2-b]pyridine-7-carboxylic acid]
	< 100	< 100	< 100	O=C(O)c1ccnc2cc(Cc3ccccc3Cl)[nH]c12 [Example 78, 2-[(2-chlorophenyl)methyl]-1H-pyrrolo[3,2-b]pyridine-7-carboxylic acid]
	< 100	< 100	< 100	Cc1cccc(C(O)c2cc3nccc(C(=O)O)c3[nH]2)c1 (racemic) [Example 22, (±)-2-[hydroxy-(3-methylphenyl)methyl]-1H-pyrrolo[3,2-b]pyridine-7-carboxylic acid]
	< 100	< 100	100 to 1000	O=C(O)c1ccnc2cc(COc3ccc(F)cc3Cl)[nH]c12 [Example 96, 2-[(2-chloro-4-fluorophenoxy)methyl]-1H-pyrrolo[3,2-b]pyridine-7-carboxylic acid]
	< 100	< 100	100 to 1000	O=C(O)c1ccnc2cc(Cc3ccc(Cl)cc3Cl)[nH]c12 [Example 90, 2-[(2,4-dichlorphenyl)methyl]-1H-pyrrolo[3,2-b]pyridine-7-carboxylic acid]
	< 100	< 100	< 100	CC(Oc1ccccc1)c1cc2nccc(C(=O)O)c2[nH]1 (racemic) [Example 84, (±)-2-(1-phenoxyethyl)-1H-pyrrolo[3,2-b]pyridine-7-carboxylic acid]
	< 100	< 100	100 to 1000	Cc1cc(C)cc(OCc2cc3nccc(C(=O)O)c3[nH]2)c1 [Example 82, 2-[(3,5-dimethylphenoxy)methyl]-1H-pyrrolo[3,2-b]pyridine-7-carboxylic acid]
